From patent US20260008818A1, “CYCLIC PEPTIDE OR SALT THEREOF, AND USES THEREOF” (FUJIFILM Corporation, priority 2023, published 2026)
Bridge positions count the residues as written; N and C are the ends. Ends that are not written are not given here. COCH2 = acetyl group that carries the bridge

What follows are substances tested on Recombinant Human FGFR1 alpha (IIIc) Fc Chimera Protein (assay: Binding affinity of enzymatically synthesized cyclic peptide to FGFR by ELISA). Settings: luminescence signal at reaction concentration 10 nmol/L, SEQ ID NO: 39 standardized to 1, enzyme synthesis product.
Procedure, shortened: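 Graded A–D from luminescence at 10 nmol/L peptide, expressed relative to SEQ ID NO: 39 after subtracting wells lacking receptor. Read-out used anti-Myc antibody (2 h, RT) with chemiluminescent substrate, following 3 h RT binding of peptide to immobilized FGFR1α(IIIc)-Fc, 5 ng per well.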

Evaluation result of binding affinity to FGFR | Substance
A (0.7 or more) | 175 (HCSYERLQFRGHEAPFRVK(COCH2)V; thioether 2-19 (inferred)) [compound 175]
A (0.7 or more) | 181 (HCSYERLQFHGHFAPFRVK(COCH2)V; thioether 2-19 via Ac) [compound 181]
B (0.5 or more and less than 0.7) | 132 (HCSYDRLQFHGHEAPFRVK(COCH2)V; thioether 2-19 (inferred)) [compound 132]
A (0.7 or more) | 185 (HCSYERLQFHGHQAPFRVK(COCH2)V; thioether 2-19 via Ac) [compound 185]
A (0.7 or more) | 153 (HCSYERLSFHGHEAPFRVK(COCH2)V; thioether 2-19 (inferred)) [compound 153]
A (0.7 or more) | 138 (HCSYEVLQFHGHEAPFRVK(COCH2)V; thioether 2-19 (inferred)) [compound 138]
C (0.1 or more and less than 0.5) | 291 (HCSYERLQFHGHEAKFRVK(COCH2)V; thioether 2-19 (inferred)) [compound 291]
A (0.7 or more) | 149 (HCSYERLFFHGHEAPFRVK(COCH2)V; thioether 2-19 (inferred)) [compound 149]
C (0.1 or more and less than 0.5) | 280 (PCWTRVVLLHHYAPFWAK(COCH2)I; thioether 2-18 (inferred)) [compound 280]
C (0.1 or more and less than 0.5) | 119 (HCSYERLQFHGHEAPYRVK(COCH2)V; thioether 2-19 (inferred)) [compound 119]
A (0.7 or more) | 295 (MCSYERLQFHGHEAPFRVK(COCH2)V; thioether 2-19 (inferred)) [compound 295]
B (0.5 or more and less than 0.7) | 263 (ICRLSWFGFKAPFWIVDSK(COCH2)Q; thioether 2-19 (inferred)) [compound 263]
B (0.5 or more and less than 0.7) | 347 (PCVQQISPHPWGAPFWVVTSK(COCH2)F; thioether 2-21) [compound 347]
C (0.1 or more and less than 0.5) | 202 (HCSYERLQFHGHEAPFRLK(COCH2)V; thioether 2-19 via Ac; not fully specified) [compound 202]
C (0.1 or more and less than 0.5) | 274 (QCYVQLYFWGHPAPFYWDK(COCH2)T; thioether 2-19 (inferred)) [compound 274]
A (0.7 or more) | 171 (HCSYERLQFQGHEAPFRVK(COCH2)V; thioether 2-19 (inferred)) [compound 171]
B (0.5 or more and less than 0.7) | 205 (HCSYERLQFHGHEAPFRYK(COCH2)V; thioether 2-19 via Ac; not fully specified) [compound 205]
C (0.1 or more and less than 0.5) | 254 (WCQLRFQGHLAPFIILK(COCH2)H; thioether 2-17 (inferred)) [compound 254]
A (0.7 or more) | 301 (HCSYERLMFHGHEAPFRVK(COCH2)V; thioether 2-19 (inferred)) [compound 301]

Evaluation result of binding affinity to FGFR | Substance
C (0.1 or more and less than 0.5) | 243 (LCRYVKLRVGLHIAPFLIK(COCH2)S; thioether 2-19 (inferred)) [compound 243]
B (0.5 or more and less than 0.7) | 210 (HCSYERLQFHGHEAPFRVK(COCH2)G; thioether 2-19 via Ac; not fully specified) [compound 210]
C (0.1 or more and less than 0.5) | 278 (SCIVPLYIYGWRAPYWLK(COCH2)V; thioether 2-18 (inferred)) [compound 278]
A (0.7 or more) | 144 (HCSYERHQFHGHEAPFRVK(COCH2)V; thioether 2-19 (inferred)) [compound 144]
C (0.1 or more and less than 0.5) | 372 (CRLIFHGHEAPFWVK(COCH2)V; thioether 1-15) [compound 372]
C (0.1 or more and less than 0.5) | 346 (ACWLRHIYQGHQAPFLIWSTK(COCH2)S; thioether 2-21) [compound 346]
C (0.1 or more and less than 0.5) | 297 (HCSMERLQFHGHEAPFRVK(COCH2)V; thioether 2-19 (inferred)) [compound 297]
B (0.5 or more and less than 0.7) | 112 (HCSYERLQFHGWEAPFRVK(COCH2)V; thioether 2-19 (inferred)) [compound 112]
A (0.7 or more) | 303 (HCSYERLQFMGHEAPFRVK(COCH2)V; thioether 2-19 (inferred)) [compound 303]
B (0.5 or more and less than 0.7) | 174 (HCSYERLQFEGHEAPFRVK(COCH2)V; thioether 2-19 (inferred)) [compound 174]
A (0.7 or more) | 87 (HCFYERLQFHGHEAPFRVKV; not fully specified; Description of Artificial Sequence: Cyclic peptide) [compound 87]
A (0.7 or more) | 326 (HCSYERLQFHGHIAPFWVK(COCH2)V; thioether 2-19 (inferred)) [compound 326]
C (0.1 or more and less than 0.5) | 245 (WCQYVYLSHVAPFLVRK(COCH2)E; thioether 2-17 (inferred)) [compound 245]
A (0.7 or more) | 195 (HCSYERLQFHGHEAPFYVK(COCH2)V; thioether 2-19 via Ac) [compound 195]
C (0.1 or more and less than 0.5) | 59 (HCSYEALQFHGHEAPFRVK(COCH2)V; thioether 2-19 (inferred)) [compound 59]
B (0.5 or more and less than 0.7) | 353 (PCVQQISPHPWGAPFWVVTSK(COCH2)Y; thioether 2-21) [compound 353]
B (0.5 or more and less than 0.7) | 50 (WCRLKLLGHDAPFIK(COCH2)W; thioether 2-15 (inferred)) [compound 50]
C (0.1 or more and less than 0.5) | 173 (HCSYERLQFTGHEAPFRVK(COCH2)V; thioether 2-19 (inferred)) [compound 173]
C (0.1 or more and less than 0.5) | 273 (QCYVQLYVWGHPAPFYWDK(COCH2)N; thioether 2-19 (inferred)) [compound 273]

Evaluation result of binding affinity to FGFR | Substance
A (0.7 or more) | 42 (RCWDQLTFYGHQAPFYVK(COCH2)G; thioether 2-18 (inferred)) [compound 42]
C (0.1 or more and less than 0.5) | 267 (ACRWAQLQFLSWGAPFLVK(COCH2)T; thioether 2-19 (inferred)) [compound 267]
A (0.7 or more) | 57 (HCAYERLQFHGHEAPFRVK(COCH2)V; thioether 2-19 (inferred)) [compound 57]
C (0.1 or more and less than 0.5) | 368 (ECKVHLHPWGAPFWIK(COCH2)S; thioether 2-16) [compound 368]
C (0.1 or more and less than 0.5) | 366 (HCQFNIHPWGAPFLVK(COCH2)E; thioether 2-16) [compound 366]
B (0.5 or more and less than 0.7) | 38 (WCQLVWQGHKAPYLTLK(COCH2)L; thioether 2-17) [compound 38]
C (0.1 or more and less than 0.5) | 340 (HCLVKRLVSAWGELAPFWVK(COCH2)V; thioether 2-20) [compound 340]
A (0.7 or more) | 78 (TCSYERLQFHGHEAPFRVKV; not fully specified; Description of Artificial Sequence: Cyclic peptide) [compound 78]
C (0.1 or more and less than 0.5) | 339 (YCITQHPWAPFWVVNPWDNK(COCH2)L; thioether 2-20 (inferred)) [compound 339]
C (0.1 or more and less than 0.5) | 367 (WCRTWLWFEIPFWYQK(COCH2)E; thioether 2-16) [compound 367]
C (0.1 or more and less than 0.5) | 113 (HCSYERLQFHGHEGPFRVK(COCH2)V; thioether 2-19 (inferred)) [compound 113]
C (0.1 or more and less than 0.5) | 105 (HCSYERLQFHFHEAPFRVK(COCH2)V; thioether 2-19 (inferred)) [compound 105]
C (0.1 or more and less than 0.5) | 320 (HCTWERLIFLGHLAPFWVK(COCH2)R; thioether 2-19 (inferred)) [compound 320]
C (0.1 or more and less than 0.5) | 107 (HCSYERLQFHNHEAPFRVK(COCH2)V; thioether 2-19 (inferred)) [compound 107]
C (0.1 or more and less than 0.5) | 349 (HCLEQLVYGGDTAPFWIVVFK(COCH2)D; thioether 2-21) [compound 349]
C (0.1 or more and less than 0.5) | 318 (HCTWERLIFRGHIAPFWVK(COCH2)R; thioether 2-19 (inferred)) [compound 318]
A (0.7 or more) | 191 (HCSYERLQFHGHEAPFLVK(COCH2)V; thioether 2-19 via Ac) [compound 191]
A (0.7 or more) | 242 (HK(COCH2)TWERLIFLGHIAPFWVCS; thioether 2-19 (inferred)) [compound 242]
A (0.7 or more) | 300 (HCSYERMQFHGHEAPFRVK(COCH2)V; thioether 2-19 (inferred)) [compound 300]
